In US20110002969A1, “COSMETIC OR PHARMACEUTICAL COMPOSITIONS COMPRISING METALLOPROTEINASE INHIBITORS” (LIPOTEC, S.A., priority 2008, published 2011):
Where “and” joins values, the source holds several entries; their conditions need not be identical. Equal values may be shown once.

Legend:
Format in all cases: biochemical
type IV collagenase = test: Collagenase inhibition trial (EnzChek Gelatinase/Collagenase Assay Kit, DQ Gelatin fluorescence); settings: peptides at 2 mg/mL, preincubated 1 hour with 0.1 unit/mL type IV collagenase; DQ Gelatin 25 μg/mL, 2 hours; normalized to medium basal values
Protocol: Peptides were resuspended in water in the presence of 0.5% DMSO. The trial was carried out in black microplates having 96 well and the EnzChek®Gelatinase/Collagenase Assay Kit (Molecular Probes) was used. To that end, peptides were preincubated at 2 mg/mL during 1 hour with 0.1 unit/mL of type IV collagenase at room temperature with moderate agitation, after said time fluorescein conjugated substrate (DQ™ Gelatin) was added to a final concentration of 25 μg/mL and reactions were incubated for 2 hours at room temperature with agitation and protected from light. The substrate, whose flourescence is inhibited, is […] collagenase releasing flourescent fragments, monitored by florescence with a FLUOstar galaxy reader (BMG LabTechnologies), using 485 nm filters for excitation and 520 nm for emission.
Table 2 details those peptides whose collagenase inhibition values are higher than 25%. Inhibition values were normalized with respect to medium inhibition basal values.

Human MMP-1 = biological target: T1, Human MMP-1 (Homo sapiens, UniProt P03956); test: Human MMP inhibition, DQ Gelatin fluorescence; settings: peptides 0.5 mM, activated protease 0.35 μg/mL, 1 hour preincubation; DQ Gelatin 25 μg/mL, 16 hours; normalized to control fluorescence
T1 sequence (P03956 100-469): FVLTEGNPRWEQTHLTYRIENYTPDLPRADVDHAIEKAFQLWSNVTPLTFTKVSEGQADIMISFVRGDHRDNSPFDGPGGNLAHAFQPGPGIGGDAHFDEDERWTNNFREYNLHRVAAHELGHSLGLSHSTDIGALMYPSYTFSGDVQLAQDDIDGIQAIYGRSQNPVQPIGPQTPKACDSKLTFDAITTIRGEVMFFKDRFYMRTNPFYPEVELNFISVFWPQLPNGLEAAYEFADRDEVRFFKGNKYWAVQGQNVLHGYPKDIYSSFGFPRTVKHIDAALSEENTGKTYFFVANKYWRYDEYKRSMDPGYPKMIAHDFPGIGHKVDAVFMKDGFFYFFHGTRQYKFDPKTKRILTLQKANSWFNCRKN
Protocol: (§1) Human MMPs were reconstructed in 50 mM Tris-HCl, 150 mM NaCl, 5 mM CaCl2, 0.2 mM NaN3 at a 7.6 pH and activated by reaction with 10 mM of 4-aminophenylmercuric acetate (dissolved in 0.01M NaOH) at a 10:1 to 37° C. ratio for 4-6 h. Activated proteases (0.35 μg/mL) were preincubated with peptides to a final 0.5 mM concentration in a 96-well black microplate for 1 hour at room temperature. After preincubation, 25 μg/mL substrate (DQ™ Gelatin) were added to the wells and samples were incubated for 16 hours at room temperature and protected against the light. Released flourescence by marked gelatin digestion was measured with an automated multiplate fluorescence reader, exciting at 485 nm and reading at 520 nm.
(§2) The results were corrected from basal flourescent value in MMP and product absence and normalized with respect to control fluorescence. Table 3 details the best inhibition values for peptides.

Human MMP-2 = biological target: T2, Human MMP-2 (Homo sapiens, UniProt P08253); test: Human MMP inhibition, DQ Gelatin fluorescence; settings: peptides 0.5 mM, activated protease 0.35 μg/mL, 1 hour preincubation; DQ Gelatin 25 μg/mL, 16 hours; normalized to control fluorescence; in % (unit assumed)
T2 sequence (P08253 110-660): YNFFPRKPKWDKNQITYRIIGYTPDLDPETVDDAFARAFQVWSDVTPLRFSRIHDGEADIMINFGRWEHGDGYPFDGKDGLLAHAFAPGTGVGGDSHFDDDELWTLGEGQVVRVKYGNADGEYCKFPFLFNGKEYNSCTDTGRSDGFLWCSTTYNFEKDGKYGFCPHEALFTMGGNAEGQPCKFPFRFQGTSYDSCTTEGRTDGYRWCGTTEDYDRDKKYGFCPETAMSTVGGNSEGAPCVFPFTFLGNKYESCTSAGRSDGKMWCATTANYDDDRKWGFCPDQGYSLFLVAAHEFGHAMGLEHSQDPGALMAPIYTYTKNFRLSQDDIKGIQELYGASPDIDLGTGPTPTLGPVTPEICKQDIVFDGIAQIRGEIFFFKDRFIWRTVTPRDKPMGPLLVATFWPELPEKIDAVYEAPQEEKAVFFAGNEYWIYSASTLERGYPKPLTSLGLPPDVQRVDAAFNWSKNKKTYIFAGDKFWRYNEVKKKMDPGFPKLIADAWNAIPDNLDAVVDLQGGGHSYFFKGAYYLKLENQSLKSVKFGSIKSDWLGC
Protocol: as §1, §2

Human MMP-3 = Human MMP-3 (Homo sapiens, UniProt P08254); test: Human MMP inhibition, DQ Gelatin fluorescence; settings: peptides 0.5 mM, activated protease 0.35 μg/mL, 1 hour preincubation; DQ Gelatin 25 μg/mL, 16 hours; normalized to control fluorescence
Sequence of Human MMP-3 (P08254 100-477): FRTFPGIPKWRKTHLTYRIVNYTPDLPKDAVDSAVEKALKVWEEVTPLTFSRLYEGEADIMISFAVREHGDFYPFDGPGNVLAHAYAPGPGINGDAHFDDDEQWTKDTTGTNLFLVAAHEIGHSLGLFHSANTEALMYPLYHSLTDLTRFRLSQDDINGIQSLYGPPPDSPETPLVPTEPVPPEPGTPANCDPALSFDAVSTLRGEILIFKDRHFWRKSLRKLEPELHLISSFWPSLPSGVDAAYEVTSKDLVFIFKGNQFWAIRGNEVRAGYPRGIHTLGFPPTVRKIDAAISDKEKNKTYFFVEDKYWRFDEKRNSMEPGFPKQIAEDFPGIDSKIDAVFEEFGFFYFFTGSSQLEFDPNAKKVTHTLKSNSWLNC
Protocol: as §1, §2

Human MMP-9 = Human MMP-9 (Homo sapiens, UniProt P14780); test: Human MMP inhibition, DQ Gelatin fluorescence; settings: peptides 0.5 mM, activated protease 0.35 μg/mL, 1 hour preincubation; DQ Gelatin 25 μg/mL, 16 hours; normalized to control fluorescence; in % (unit assumed)
Sequence of Human MMP-9 (P14780 107-707 limits assumed): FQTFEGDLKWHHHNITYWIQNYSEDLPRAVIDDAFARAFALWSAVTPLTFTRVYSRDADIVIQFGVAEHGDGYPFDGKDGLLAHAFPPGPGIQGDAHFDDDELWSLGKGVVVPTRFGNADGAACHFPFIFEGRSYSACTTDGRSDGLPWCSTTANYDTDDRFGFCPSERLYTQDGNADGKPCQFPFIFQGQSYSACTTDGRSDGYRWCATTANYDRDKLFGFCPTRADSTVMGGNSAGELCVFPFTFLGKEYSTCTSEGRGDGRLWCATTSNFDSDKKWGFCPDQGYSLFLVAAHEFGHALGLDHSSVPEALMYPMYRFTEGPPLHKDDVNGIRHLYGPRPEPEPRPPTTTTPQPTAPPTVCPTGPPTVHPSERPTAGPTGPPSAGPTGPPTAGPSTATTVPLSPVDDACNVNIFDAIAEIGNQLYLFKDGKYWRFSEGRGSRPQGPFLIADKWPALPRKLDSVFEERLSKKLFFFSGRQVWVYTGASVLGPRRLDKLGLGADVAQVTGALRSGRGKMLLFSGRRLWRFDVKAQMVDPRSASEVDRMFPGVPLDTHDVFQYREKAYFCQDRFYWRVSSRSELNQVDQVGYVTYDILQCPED
Protocol: as §1, §2

Substance	Collagenase activity inhibition percentage (type IV collagenase) [%]	MMP-1 inhibition value (Human MMP-1) [%]	MMP-2 inhibition value (Human MMP-2)	MMP-3 inhibition value (Human MMP-3) [%]	MMP-9 inhibition value (Human MMP-9)
Ac-L-Arg-L-His-L-His-L-Cit-OH	60.6	34.7	101.4	39.1	63.1
Palm-L-Arg-L-His-L-His-L-Cit-NH2	36.7	–	–	–	–
Ac-L-Arg-L-Asn-L-His-L-Cit-CONH-(CH2)15-CH3	26.8	–	–	–	–

Now from value to substance:

Collagenase activity inhibition percentage (type IV collagenase) [%]	MMP-1 inhibition value (Human MMP-1) [%]	MMP-2 inhibition value (Human MMP-2)	MMP-3 inhibition value (Human MMP-3) [%]	MMP-9 inhibition value (Human MMP-9)	Substance
55.4	–	–	–	–	Ac-L-Ara-L-His-L-His-L-Cit-CONH-(CH2)15-CH3
60.5	–	–	–	–	Ac-L-Arg-L-His-L-Arg-L-Cit-OH
26.8	–	–	–	–	H-L-Arg-L-Asn-L-His-L-Cit-OH
31.3	–	–	–	–	Palm-L-Arg-L-Asn-L-Arg-L-Cit-NH2
58.9	–	78.7 and 95.3	–	69.5 and 89.6	Ac-L-Arg-L-Asn-L-Arg-L-Cit-OH
